Source: patent US20230346827A1 (priority 2020, published 2023)

What was measured:
SARS-CoV-2 = conditions: incubation of SARS-CoV-2 with exogenous LMW-DS; cited from earlier work
[1] = biological target: oligomeric amyloid-β / PrP^c interaction (Homo sapiens, UniProt P04156); assay type: binding
[2] = test system: HDFn + (IL-1β, TNFα, IFNy, EGF, bFGF and PDGF-BB); assay: BioMAP HDF3CGF system; assay type: cell-based, human; conditions: annotated relative to vehicle controls
Excerpt: (§1) Cell types and stimuli used in each system are as follows: 3C system [HUVEC + (IL-1β, TNFα and IFNy)], 4H system [HUVEC + (IL-4 and histamine)], LPS system [PBMC and HUVEC + LPS (TLR4 ligand)], SAg system [PBMC and HUVEC + TCR ligands], BT system [CD19+ B cells and PBMC + (α-IgM and TCR ligands)], BF4T system [bronchial epithelial cells and HDFn + (TNFα and IL-4)], BE3C system [bronchial epithelial cells + (IL-1β, TNFα and IFNy)], CASM3C system [coronary artery smooth muscle cells + (IL-1 β, TNFα and IFNy)], HDF3CGF system [HDFn + (IL-1β, TNFα, IFNy, EGF, bFGF and PDGF-BB)], KF3CT system [keratinocytes and HDFn + (IL-1β, TNFα, IFNy and TGFβ)], MyoF system [differentiated lung myofibroblasts + (TNFα and TGFβ)] and Mphg system [HUVEC and M1 macrophages + Zymosan (TLR2 ligand)].
(§2) Systems are derived from either single cell types or co-culture systems. Adherent cell types are cultured in 96 or 384-well plates until confluence, followed by the addition of PBMC (SAg and LPS systems). […] Soluble factors from supernatants are quantified using either HTRF® detection, bead-based multiplex immunoassay or capture ELISA. Overt adverse effects of test agents on cell proliferation and viability (cytotoxicity) are detected by sulforhodamine B (SRB) staining, for adherent cells, and alamarBlue® reduction for cells in suspension. […]

[3] = test system: PBMC and HUVEC + LPS (TLR4 ligand); assay: BioMAP LPS system; assay type: cell-based, human; conditions: annotated relative to vehicle controls
Excerpt: as §1, §2

ALS patients = assay: Blood myoglobin, creatine kinase and HGF in ALS patients, dextran sulfate 1 mg/kg s.c. weekly for five weeks (Example 15); assay type: in vivo, human; design: circulating HGF, peak: unit not given here
Experimental: A clinical trial in the form of a Phase IIa, single-center, open label, single-arm study where the safety, tolerability and possible efficacy of subcutaneously administered dextran sulfate was evaluated in patients with ALS of intermediate progression rate. The clinical trial was conducted at the Sahlgrenska University Hospital, Gothenburg, Sweden and was overseen and approved by the Ethics Committee of the University of Gothenburg and by the Swedish Medical Products Agency.
Dextran sulfate (Tikomed AB, Viken, Sweden, WO 2016/076780) was administered at 1 mg/kg by […] subcutaneous injection once a week for five weeks to 13 human patients suffering from ALS.
Blood samples were drawn at defined study intervals by a venous catheter into vacutainer tubes. Laboratory analyses of blood plasma were performed immediately after collection by the Clinical Chemistry Laboratory at the Sahlgrenska University Hospital.

## sodium salt of dextran sulfate [LMW-DS]
SARS-CoV-2
  viral replication within ex vivo human lung tissue explants: reduced viral replication
[1]
  Competable binding (%): 85±4%
  Hill coefficient: 1.00±0.21
  IC50: 0.42 ± 0.16 µg/mL
[2]
  Decreased biomarker activity: VCAM-1, IP-10, ITAC, MIG, M-CSF
  Increased biomarker activity: EGFR, MMP-1, PAI-1
[3]
  Decreased biomarker activity: sTNFα
  Increased biomarker activity: IL-8
ALS patients; after 4 weeks of treatment
  reduction in creatine kinase levels: 13.3%
  serum creatine kinase levels: 6.2 ± 5.08 µkat/L
  serum myoglobin levels: 103.69 ± 72.16 µg/L
ALS patients; after 4 weeks of treatment vs Day 1
  reduction in myoglobin levels: 30%
ALS patients; peak at 2.5 hours after injection
  circulating HGF, peak: 37863 ± 14235
